Measurements: US10919941B2, “Functional lipid constructs” (KODE BIOTECH LIMITED, priority 2007, dated 2021)
Read-outs that look alike come from different tables or passages of the source.

Columns and labels:
A group red blood cells = details: construct 1 mg/mL, 37° C. 2 hours; wells washed 3× with PBS
Protocol: A volume of 60 μL washed A group red blood cells (RBCs) was modified by incubation with 20 μL of the dilution of the construct at 37° C. for 2 hours.
The modified RBCs were washed twice in PBS and once in Celpresol™ as described above. A 2% cell suspension of washed cells (modified or control) was prepared in Celpresol™ and cell concentration (150×10^6/mL) determined using a haemocytometer. Similarly the concentration of a suspension streptavidin beads (134×10^6/mL) was determined.
A volume of 50 μL of a suspension of RBCs was added to provide a bead to RBC ratio of c. 1:1 and incubated at room temperature for 1 hour to allow RBCs to settle.
The wells were washed 3× with PBS, aspirating the washing solution with a pipette.

RL95-2 monolayers [1] = test system: RL95-2 monolayers
spermatozoa = test system: spermatozoa
Protocol: Spermatozoa were washed and isolated by layering 1.1 mL of fresh semen over a gradient of SpermGrad 125 (Vitrolife 10099; 2 mL of 40% solution over 2 mL of 80% solution in a 15 mL round bottom tube) and centrifuging at 500×g for 20 min.
The bottom layer of the gradient (c. 0.7 mL was transferred to 4 mL round bottom tubes and c. 2 mL flushing (handling) media (Medicult 10840125A) added. The tube was centrifuged at 300×g for 10 min and the spermatozoa washed two more times (mixing by tube inversion).
Samples of washed spermatozoa were incubated overnight at 37° C. in a 5% CO2 atmosphere.
Open tubes were incubated at 37° C. in a 5% CO2 atmosphere prior to addition of c. 70 μL spermatozoa (c. 25×10^6/mL) to each tube and incubation for 120 min (A), 60 min (B), 30 min (C), 10 min […] and 120 min (E).
Following incubation a couple of drops of flushing media were added and the tubes centrifuged at 300×g for 5 min. The spermatozoa were washed two more times with flushing media and before being re-suspended in culture media to a final volume of 100 μL.
Streptavidin beads at a concentration of c. 6.25×10^6/100 μL were diluted 35 times in BSA plus flushing media to provide a ratio of 0.1 beads/spermatozoa when mixed in equal volume with a diluted suspension of the modified spermatozoa.
A volume of 5 μL of a diluted suspension of the modified spermatozoa was mixed on a slide with 5 μL of a diluted suspension of streptavidin beads and covered with a coverslip.
The mixture was observed under a microscope at 400× magnification.
The assessment of the attachment of streptavidin beads to modified spermatozoa is recorded in Table 27.

RL95-2 cells = details: for Mean Fluorescence: T = 24 hr, Serum-containing
red blood cells = assay: Avidin-Alexafluor fluorescence of RBCs modified with biotin-lipid construct; type: cell-based; design: key: 0 (no fluorescence observed); 4 (maximum fluorescence observed); details: for fluorescence score (Avidin-AF), RBCs: Day 0
Protocol: A stock solution of Avidin-Alexafluor (Avidin-AF) was prepared in sterile phosphate buffered saline (PBS) at a concentration of 2 mg/mL. A stock solution of biotinylated gangliocide (BioG) was prepared in sterile PBS at a concentration of 5 mg/mL.
Incubations were performed in a plastic ependorf tube of nominal volume 1.5 mL for 2 hours at 37° C. in a water bath. O group RBCs were incubated with a solution of BioG at a concentration of 0.33 mg/mL as a positive control.
Incubated RBCs were washed 3 times with PBS in a mini centrifuge. Fluorescent labeling of the washed, modified RBCs was performed by adding 10 μL of a solution of Avidin-AF at a concentration of 0.1 mg/mL. The RBCs were then incubated in the dark for 1 hour at 37° C. in a water bath and washed 3 times with PBS.
85% solution of the washed, fluorescent labeled RBCs were viewed on a slide with cover slip under a fluorescent microscope at 488 nm and photographic exposure of 1.903 (FIG. 6). The intensity of the fluorescent signal was recorded using a scoring system of 0 (no fluorescence observed) to 4 (maximum fluorescence observed).
Retention of the construct by the RBCs was assessed by incubation with Avidin-AF as before.

RL95-2 monolayers [2] = test system: RL95-2 monolayers; remark: listed apart in the source
Protocol: The modification of monolayers of the cell line RL95-2 (established from a human endometrial adenocarcinoma (ATCC HTB CRL 1671)) in serum-free and serum-containing media was evaluated.
D-MEM/F12 (Gibco 11320-033, Invitrogen NZ) containing 1% penicillin/streptomycin (Gibco 15140-122, Invitrogen NZ) was used as a serum-free medium. D-MEM/F12 10% FBS (Gibco 10091-130, Invitrogen NZ) containing 1% penicillin/streptomycin and […] insulin (Gibco 12585-014, Invitrogen NZ) was used as a serum-containing medium.
A suspension of the cell line RL95-2 was diluted in pre-warmed serum-containing media to the required concentration e.g. 4×10^5 cells/mL. A 25 μL volume of the suspension was used to seed the required wells in a Terasaki tray so that each treatment was performed in duplicate. The plates were incubated overnight in a 5% CO2, 37° C. incubator until the monolayer was approximately 60% confluent.
Trays were incubated at 37° C., 5% CO2 for 120 min.
The cells were then washed and a 12 μl volume of a 0.1 mg/mL solution of Avidin Alexa Fluor® 488 added. The cells were then incubated at room temperature for a further 30 minutes in the dark.
The monolayers were finally washed 3 times with PBS, the trays inverted and photographed using an Olympus BX51 fluorescent microscope at 200× magnification, exposure time 475 ms (FIG. 12).

murine embryos = assay: Avidin-Alexafluor fluorescence of murine embryos modified with biotin-lipid construct; type: cell-based
Protocol: Murine embryos (morula/early blastocyst stage, 3.5 day) were incubated in 50 microlitre microdrops in Blastassist™ culture media.
The zona pellucida of the embryos was removed by treatment with 0.5% pronase (4 minute incubation) and washing 3 times in embryo handling media prior to introduction into the microdrops. Each microdrop was equilibrated 5% CO2 at 37° C. overnight prior to introduction of the embryos.
Microdrops containing embryos and BioG were incubated for 40 minutes in 5% CO2 at 37° C.
Following incubation each group of embryos was washed 3 times in handling media and transferred to 50 microlitre microdrops containing 2 mg/ml, Avidin-AF microdrops for fluorescent labelling. The microdrops containing transferred embryos were incubated at 37° C. for 30 minutes in the dark.
Each group of embryos was then washed 3 times in handling media and mounted on a glass microscope slide for viewing. Embryos were viewed under a fluorescent microscope at 488 nm. The intensity of the fluorescence was recorded using a scoring system of 0 (no fluorescence) to 4 (maximum fluorescence).

group 0 RBCs = details: construct 0.5 mg/ml
Protocol: Unmodified group A RBCs were used as a second population of cells.
Both populations of cells were incubated for 37° C. for 2 hrs in a water bath and then washed 2× in PBS and 1× in Celpresol using an Immufuge II (low, 1 min). The concentration of cells in each suspension was made up to 2% by adding 1.5 mL.
The suspensions of RBCs were mixed with avidinylated magnetic Dynabeads at an approximate ratio of RBC:bead of 1 and incubated for 10 min at room temperature on a gyrator. Samples of the first and second populations of RBCs were then mixed in equal volumes (35 μl each) in an ependorf tube for two minutes.
The contents of the ependorf were transferred to the well of a 96-well plate and a magnet was applied to the underside of the well for 1 minute. The supernatant was carefully removed with the magnet applied and without disruption of the beads. The blood grouping of the cells of the supernatants were then assessed by applying 30 μl of supernatant and 30 μl anti-A antibody to a Dynamed™ gel card. Cards were spun for 10 min in a centrifuge.

[3] = target: Miltenberger antigen MiIII on natural human red cells (human) (UniProt P02724); assay: AHG; cell Abtectcell III 8245009
[4] = target: Miltenberger antigen MiIII on natural human red cells (human) (UniProt P02724); assay: BioVue AHG; cell 11297161
[5] = target: Miltenberger antigen Mi?X on natural human red cells (human); assay: BioVue AHG; cell C.BR
[6] = target: Miltenberger antigen Vw on natural human red cells (human) (UniProt P02724); assay: BioVue AHG; cell 9422184
[7] = target: Miltenberger antigen MiIII on natural human red cells (human) (UniProt P02724); assay: AHG; cell R2R2 11297161
[8] = target: Miltenberger antigen MiIII on natural human red cells (human) (UniProt P02724); assay: AHG; cell R1Rz 11291347
[9] = target: Miltenberger antigen MiIII on natural human red cells (human) (UniProt P02724); assay: saline phase; cell R1Rz 11291347
[10] = target: Miltenberger antigen MiIII on natural human red cells (human) (UniProt P02724); assay: saline phase; cell R2R2 11297161
[11] = 25° C.; cited from earlier work

Biotin-CMG(2)-Ad-DOPE
retention of modified RBCs by streptavidin beads on magnet after washing (A group red blood cells): retained | internalisation of Avidin Alexa Fluor 488 fluorescence (RL95-2 monolayers [1]; incubated at 4° C.): No internalization was observed | internalisation of Avidin Alexa Fluor 488 fluorescence (RL95-2 monolayers [1]; incubated at 37° C.): fluorescence starts to internalize within 4 hr | Number of beads attached to spermatozoa (spermatozoa; treatment A, incubation time 120 min, 30 min, with cross-linking): 10-15 (with | Number of beads attached to spermatozoa (spermatozoa; treatment A, incubation time 120 min, Immediate): 10-12 | Number of beads attached to spermatozoa (spermatozoa; treatment B, incubation time 460 min, 30 min): 8 | Number of beads attached to spermatozoa (spermatozoa; treatment C, incubation time 30 min, 30 min): 3 | Number of beads attached to spermatozoa (spermatozoa; treatment C, incubation time 30 min, Immediate): 1-3 | Number of beads attached to spermatozoa (spermatozoa; treatment D, incubation time 10 min, 30 min): 1 | Number of beads attached to spermatozoa (spermatozoa; treatment D, incubation time 10 min, Immediate): 1 | Mean Fluorescence (RL95-2 cells; 20 μg/mL): 0 | Mean Fluorescence (RL95-2 cells; 100 μg/mL): 0 | fluorescence 24 hr post-insertion, serum-free media (RL95-2 cells; RL95-2 cells, reduced from T=0): Fluorescence was detected | fluorescence score (Avidin-AF), RBCs (red blood cells; dilution 0.001 mg/ml): 0 | fluorescence score (Avidin-AF), RBCs (red blood cells; dilution 0.01 mg/ml): 1 | fluorescence score (Avidin-AF), RBCs (red blood cells; dilution 0.1 mg/ml): 2 | fluorescence score (Avidin-AF), RBCs (red blood cells; dilution 1 mg/ml): 4 | fluorescence score (Avidin-AF), RBCs, retention (red blood cells; dilution 1 mg/ml, Day 14 of storage): 4 | Mean Fluorescence (RL95-2 monolayers [2]; 100 μg/mL, insertion time 30): 3 | fluorescence of RL95-2 cell membrane, serum-free media (RL95-2 monolayers [2]; construct 20, 100 and 500 μg/mL): homogenous intense fluorescent signal | fluorescence of RL95-2 cell membrane, serum-containing media (RL95-2 monolayers [2]; same concentrations (20, 100 and 500 μg/mL)): weakened fluorescence | intensity of fluorescence versus insertion time (RL95-2 monolayers [2]; serum-free media): increased with increasing insertion time | fluorescence score (Avidin-AF), murine embryos (murine embryos; 0.1 mg/mL, n = 21): 2 | fluorescence score (Avidin-AF), murine embryos (murine embryos; 1 mg/mL, n = 19): 1 | fluorescence score (Avidin-AF), murine embryos (murine embryos; 2 mg/mL, n = 19): 1 | retention of modified group 0 RBCs by the magnet from mixture with unmodified group A RBCs (group 0 RBCs): Retention of the 0 group RBCs by the magnet was demonstrated

TAP1
agglutination score [3]: 10 | agglutination score [4]: 10 | agglutination score [5]: 12 | agglutination score [6]: 5 | agglutination score [7]: 10 | agglutination score [8]: 10 | agglutination score [9]: 8 | agglutination score [10]: 8

O=C(O)CCCC[C@@H]1SC[C@@H]2NC(=O)N[C@@H]21 [Biotin, [3aS-(3aα, 4β, 6aα)]-hexahydro-2-oxo-1H-thieno[3,4-d]imidazole-4-pentanoic acid]
solubility in 95% alcohol [11]: approximately 80 mg/100 mL | solubility in water [11]: approximately 22 mg/100 mL
